Results published in patent US11370847B2, “Single domain antibodies directed against intracellular antigens” (Singh Biotechnology, LLC, priority 2014, dated 2022).
Where “and” joins values, the source holds several entries; their conditions need not be identical. Identical values can stand only once. Like-named read-outs stand apart in the source and are kept apart here.

How the values were obtained:
STAT5 = assay: Biacore 3000 protein binding, STAT5
[1] = test system: Zika/DAKAR D41525 Senegal strain
STAT3 = assay: Immunofluorescence of Stat3 nuclear translocation after IL-6; assay type: cell-based; conditions: HEp-2, MDA-MB-231 and PANC-1 cells; sdAb 1:10 overnight; 100 ng/ml IL-6 15 min
Description: The cells were grown to confluence on chamber slides. […] As a negative control, no antibody was added to duplicate chambers. The slides were washed, and either serum-free media alone or 100 ng/ml recombinant human IL-6 (Peprotech, Rocky Hill, N.J.) in serum free media was added to the slides for 15 min at 37° C. The media was then removed and the chamber slides were fixed in ice cold 100% methanol for 10 min at −20° C.
Immunofluorescence assays were performed on the fixed slides. First, the slides were blocked with 3% BSA in PBS was done for one hour at room temperature. The primary antibody, Stat3(124H6) mouse monoclonal antibody (Cell Signaling Technology, Danvers, Mass.) was added to the slides at a 1:1000 dilution overnight in dark box at 4° C. The following day, the slides were washed and the secondary Alexa Fluor 488 anti-mouse IgG antibody (Cell Signaling Technology) was added at a 1:500 dilution and incubated for 1 hour at room temperature. The slides were then washed, mounted with mounting media and viewed with a fluorescence microscope.

MDA-MB-231 xenograft = conditions: for Individual Tumor Measurements: listed as anti-STAT3 bacterial VHH13
[2] = Group 2, 1 mg/kg IP BID×14, day 20 (6/23/15)
[3] = Group 2, 1 mg/kg IP BID×14, day 23 (6/26/15)
[4] = Group 2, 1 mg/kg IP BID×14, day 26 (6/29/15)
[5] = Group 2, 1 mg/kg IP BID×14, day 29 (7/2/15)
[6] = Group 2, 1 mg/kg IP BID×14, day 33 (7/6/15)
[7] = Group 2, 1 mg/kg IP BID×14, day 36 (7/9/15)
[8] = Group 2, 1 mg/kg IP BID×14, day 42 (7/15/15)
[9] = Group 3, 2 mg/kg IP BID×14, day 20 (6/23/15)
[10] = Group 3, 2 mg/kg IP BID×14, day 23 (6/26/15)
[11] = Group 3, 2 mg/kg IP BID×14, day 26 (6/29/15)
[12] = Group 3, 2 mg/kg IP BID×14, day 29 (7/2/15)

Substance: anti-STAT3 VHH13: anti-STAT3 single-domain antibody, SEQ ID NO:3; bacterially produced, referred to as SBT-100
- binding to STAT5 (STAT5; Biacore 3000, sdAb immobilized): bound
- Result (binding) (STAT5; Table 50, sdAb immobilized as ligand, analyte STAT5 protein 500 nM): Binding
- EC50 [1]: 11.04 ug/m
- EC90 [1]: 48.11 µg/mL
- translocation of Stat3 to the nucleus following IL-6 treatment (STAT3): blocks the translocation of Stat3 to the nucleus
- % mean tumor growth inhibition (MDA-MB-231 xenograft; 500 μg/kg bw IP QD×14): 33.64%
- mean tumor size (±SE) on day 14 of dosing (MDA-MB-231 xenograft; 500 μg/kg bw IP QD×14): 118.86±15.94
- tumor doubling time (MDA-MB-231 xenograft; 500 μg/kg bw IP QD×14, control 44.27 days): 61.06 days
- % Inhibition Mean (MDA-MB-231 xenograft; [2]): 10.34%
- % Inhibition Median (MDA-MB-231 xenograft; [2]): 18.61%
- Tumor Mean Absolute (MDA-MB-231 xenograft; [2]): 82.92 mm^3
- Tumor Median Absolute (MDA-MB-231 xenograft; [2]): 80.66 mm^3
- Individual Tumor Measurements (MDA-MB-231 xenograft; [2]): 73.15 mm^3 and 80.11 mm^3 and 97.22 mm^3 and 81.21 mm^3
- % Inhibition Mean (MDA-MB-231 xenograft; [3]): 52.39%
- % Inhibition Median (MDA-MB-231 xenograft; [3]): 43.28%
- Tumor Mean Absolute (MDA-MB-231 xenograft; [3]): 66.17 mm^3
- Tumor Median Absolute (MDA-MB-231 xenograft; [3]): 65.55 mm^3
- Individual Tumor Measurements (MDA-MB-231 xenograft; [3]): 54.54 mm^3 and 76.56 mm^3 and 79.99 mm^3 and 53.58 mm^3
- % Inhibition Mean (MDA-MB-231 xenograft; [4]): 60.52%
- % Inhibition Median (MDA-MB-231 xenograft; [4]): 50.54%
- Tumor Mean Absolute (MDA-MB-231 xenograft; [4]): 68.07 mm^3
- Tumor Median Absolute (MDA-MB-231 xenograft; [4]): 68.80 mm^3
- Individual Tumor Measurements (MDA-MB-231 xenograft; [4]): 59.17 mm^3 and 80.34 mm^3 and 78.44 mm^3 and 54.34 mm^3
- % Inhibition Mean (MDA-MB-231 xenograft; [5]): 65.12%
- % Inhibition Median (MDA-MB-231 xenograft; [5]): 61.81%
- Tumor Mean Absolute (MDA-MB-231 xenograft; [5]): 68.32 mm^3
- Tumor Median Absolute (MDA-MB-231 xenograft; [5]): 63.66 mm^3
- Individual Tumor Measurements (MDA-MB-231 xenograft; [5]): 57.21 mm^3 and 88.75 mm^3 and 59.90 mm^3 and 67.43 mm^3
- % Inhibition Mean (MDA-MB-231 xenograft; [6]): 69.70%
- % Inhibition Median (MDA-MB-231 xenograft; [6]): 72.26%
- Tumor Mean Absolute (MDA-MB-231 xenograft; [6]): 67.12 mm^3
- Tumor Median Absolute (MDA-MB-231 xenograft; [6]): 56.75 mm^3
- Individual Tumor Measurements (MDA-MB-231 xenograft; [6]): 56.20 mm^3 and 99.09 mm^3 and 55.90 mm^3 and 57.30 mm^3
- % Inhibition Mean (MDA-MB-231 xenograft; [7]): 78.28%
- % Inhibition Median (MDA-MB-231 xenograft; [7]): 79.75%
- Tumor Mean Absolute (MDA-MB-231 xenograft; [7]): 51.81 mm^3
- Tumor Median Absolute (MDA-MB-231 xenograft; [7]): 45.40 mm^3
- Individual Tumor Measurements (MDA-MB-231 xenograft; [7]): 37.13 mm^3 and 87.42 mm^3 and 53.66 mm^3 and 29.02 mm^3
- % Inhibition Mean (MDA-MB-231 xenograft; [8]): 78.08%
- % Inhibition Median (MDA-MB-231 xenograft; [8]): 76.74%
- Tumor Mean Absolute (MDA-MB-231 xenograft; [8]): 55.98 mm^3
- Tumor Median Absolute (MDA-MB-231 xenograft; [8]): 56.29 mm^3
- Individual Tumor Measurements (MDA-MB-231 xenograft; [8]): 39.17 mm^3 and 72.18 mm^3 and 60.35 mm^3 and 52.23 mm^3
- growth delay (MDA-MB-231 xenograft; Group 2: 1 mg/kg bw IP BID×14): 13.99 days
- mean growth inhibition (MDA-MB-231 xenograft; Group 2: 1 mg/kg bw IP BID×14): 78.3
- mean tumor size (±S.E.) at termination (day 42) (MDA-MB-231 xenograft; Group 2: 1 mg/kg bw IP BID×14): 55.98±6.94
- mean tumor size (±SE) at day 14 of dosing (MDA-MB-231 xenograft; Group 2: 1 mg/kg bw IP BID×14): 67.12±10.66
- % treatment/control (MDA-MB-231 xenograft; Group 2: 1 mg/kg bw IP BID×14, (tumor stasis)): −33.75%
- tumor doubling time (MDA-MB-231 xenograft; Group 2: 1 mg/kg bw IP BID×14, control 20.56 days): 34.54 days
- % Inhibition Mean (MDA-MB-231 xenograft; [9]): 16.19%
- % Inhibition Median (MDA-MB-231 xenograft; [9]): 15.78%
- Tumor Mean Absolute (MDA-MB-231 xenograft; [9]): 77.52 mm^3
- Tumor Median Absolute (MDA-MB-231 xenograft; [9]): 83.46 mm^3
- Individual Tumor Measurements (MDA-MB-231 xenograft; [9]): 56.41 mm^3 and 84.06 mm^3 and 82.87 mm^3 and 86.73 mm^3
- % Inhibition Mean (MDA-MB-231 xenograft; [10]): 59.06%
- % Inhibition Median (MDA-MB-231 xenograft; [10]): 57.27%
- Tumor Mean Absolute (MDA-MB-231 xenograft; [10]): 56.89 mm^3
- Tumor Median Absolute (MDA-MB-231 xenograft; [10]): 49.39 mm^3
- Individual Tumor Measurements (MDA-MB-231 xenograft; [10]): 43.61 mm^3 and 85.18 mm^3 and 54.78 mm^3 and 44.01 mm^3
- % Inhibition Mean (MDA-MB-231 xenograft; [11]): 77.83%
- % Inhibition Median (MDA-MB-231 xenograft; [11]): 75.54%
- Tumor Mean Absolute (MDA-MB-231 xenograft; [11]): 38.22 mm^3
- Tumor Median Absolute (MDA-MB-231 xenograft; [11]): 34.02 mm^3
- Individual Tumor Measurements (MDA-MB-231 xenograft; [11]): 33.13 mm^3 and 61.75 mm^3 and 34.92 mm^3 and 23.09 mm^3
- % Inhibition Mean (MDA-MB-231 xenograft; [12]): 76.54%
- % Inhibition Median (MDA-MB-231 xenograft; [12]): 74.17%
- Tumor Mean Absolute (MDA-MB-231 xenograft; [12]): 45.95 mm^3
- Tumor Median Absolute (MDA-MB-231 xenograft; [12]): 43.07 mm^3
- Individual Tumor Measurements (MDA-MB-231 xenograft; [12]): 31.76 mm^3 and 80.69 mm^3 and 54.38 mm^3 and 16.99 mm^3
